{
  "source": "patent US20100204203A1",
  "about": "“Chemical Compounds 637: Pyridopyrimidinediones as PDE4 Inhibitors” (priority 2007, published 2010)",
  "data": [
    {"target": "recombinant Human Phosphodiesterase B2 (PDE4B2) (Homo sapiens, UniProt Q07343)", "sequence (Q07343 1-564 isoform Q07343-2)": "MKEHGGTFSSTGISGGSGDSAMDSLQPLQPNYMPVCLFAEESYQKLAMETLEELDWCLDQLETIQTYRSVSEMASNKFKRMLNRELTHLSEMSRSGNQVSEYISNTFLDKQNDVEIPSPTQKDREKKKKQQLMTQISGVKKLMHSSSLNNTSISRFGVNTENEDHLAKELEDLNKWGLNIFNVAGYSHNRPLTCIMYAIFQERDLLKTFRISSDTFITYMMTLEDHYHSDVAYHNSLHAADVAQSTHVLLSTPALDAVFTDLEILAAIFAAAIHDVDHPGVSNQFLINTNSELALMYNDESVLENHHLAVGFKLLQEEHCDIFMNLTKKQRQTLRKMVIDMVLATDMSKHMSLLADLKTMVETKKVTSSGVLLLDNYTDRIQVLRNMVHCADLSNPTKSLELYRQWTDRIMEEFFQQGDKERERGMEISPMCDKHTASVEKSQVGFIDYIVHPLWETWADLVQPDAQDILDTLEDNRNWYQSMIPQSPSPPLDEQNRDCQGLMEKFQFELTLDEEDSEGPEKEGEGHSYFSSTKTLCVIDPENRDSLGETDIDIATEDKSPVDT", "experiment": "Human Phosphodiesterase B2 Radiometric Assay (yttrium silicate SPA beads, [3H]cyclic AMP)", "format": "biochemical", "details": "recombinant human PDE4B2, radiometric SPA assay, 8 nM [3H]cyclic AMP; read-out: PDE4B2 pIC50 (converted)", "in_short": "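Compounds were preincubated 30 min at 30 °C with 0.1 mg/mL PDE4B2 in 50 mM HEPES pH 7.5, 8.3 mM MgCl2, 1.7 mM EGTA, 0.01% Brij 35. Then 8 nM [3H]cAMP was added for 20 min, stopped with yttrium silicate SPA beads plus 18 mM ZnSO4 capturing product 5′AMP; pIC50 by curve fitting.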", "units": {"IC50": "nM"}, "values": [
      {"smiles": "CN(C)C1(C(=O)N[C@H]2CC[C@@H](n3c(=O)c4cc(F)cnc4n(-c4cccc(-c5ccc(CN6CCN(CCO)CC6)cc5)c4)c3=O)CC2)CC1", "note": "[Example 211, 1-(dimethylamino)-N-{cis-4-[6-fluoro-1-(4′-{[4-(2-hydroxyethyl)piperazin-1-yl]methyl}biphenyl-3-yl)-2,4-dioxo-1,4-dihydropyrido[2,3-d]pyrimidin-3(2H)-yl]cyclohexyl}cyclopropanecarboxamide]", "IC50": 0.0158},
      {"smiles": "CSc1cccc(-c2cccc(-n3c(=O)n([C@H]4CC[C@@H](NC(=O)c5cn6cc(F)ccc6n5)CC4)c(=O)c4cc(F)cnc43)c2)c1", "note": "[Example 15, 6-fluoro-N-{cis-4-[6-fluoro-1-[3′-(methylthio)biphenyl-3-yl]-2,4-dioxo-1,4-dihydropyrido[2,3-d]pyrimidin-3(2H)-yl]cyclohexyl}imidazo[1,2-a]pyridine-2-carboxamide.]", "IC50": 0.0126},
      {"smiles": "O=C(N[C@H]1CC[C@@H](n2c(=O)c3cc(F)cnc3n(-c3cccc(-c4ccccc4CN4CCOCC4)c3)c2=O)CC1)C1(O)CC1", "note": "[Example 48, N-{cis-4-[6-fluoro-1-[2′-(morpholin-4-ylmethyl)biphenyl-3-yl]-2,4-dioxo-1,4-dihydropyrido[2,3-d]pyrimidin-3(2H)-yl]cyclohexyl}-1-hydroxycyclopropanecarboxamide]", "IC50": 0.398},
      {"smiles": "CC(C)N1CCN(Cc2ccc(-c3cccc(-n4c(=O)n([C@H]5CC[C@@H](NC(=O)CN6CCCCC6)CC5)c(=O)c5cc(F)cnc54)c3)cc2)CC1", "note": "[Example 237, N-{cis-4-[6-fluoro-1-{4′-[(4-isopropylpiperazin-1-yl)methyl]biphenyl-3-yl}-2,4-dioxo-1,4-di-hydropyrido[2,3-d]pyrimidin-3(2H)-yl]cyclohexyl}-2-piperidin-1-ylacetamide]", "IC50": 0.0398},
      {"smiles": "CN(CC(=O)N(C)C)Cc1cc(O)ccc1-c1cccc(-n2c(=O)n([C@H]3CC[C@@H](NCc4cn5cc(F)ccc5n4)CC3)c(=O)c3cc(F)cnc32)c1", "note": "[Example 378, N~2~-({3′-[6-fluoro-3-(cis-4-{[(6-fluoroimidazo[1,2-a]pyridin-2-yl)methyl]amino}cyclohexyl)-2,4-dioxo-3,4-dihydropyrido[2,3-d]pyrimidin-1(2H)-yl]-4-hydroxybiphenyl-2-yl}methyl)-N,N,N~2~-trimethylglycinamide]", "IC50": 0.316},
      {"smiles": "CC(C)N1CCN(Cc2ccc(-c3cccc(-n4c(=O)n([C@H]5CC[C@@H](NC(=O)C6CCCC6)CC5)c(=O)c5cc(F)cnc54)c3)cc2)CC1", "note": "[Example 236, N-{cis-4-[6-fluoro-1-{4′-[(4-isopropylpiperazin-1-yl)methyl]biphenyl-3-yl}-2,4-dioxo-1,4-di-hydropyrido[2,3-d]pyrimidin-3(2H)-yl]cyclohexyl}cyclo-pentanecarboxamide]", "IC50": 0.126},
      {"smiles": "CC(C)[C@@H](N)C(=O)N[C@H]1CC[C@@H](n2c(=O)c3cc(F)cnc3n(-c3cccc(-c4ccc(CN5CCCN(C)CC5)cc4)c3)c2=O)CC1", "note": "[Example 313, N-{cis-4-[6-fluoro-1-{4′-[(4-methyl-1,4-diazepan-1-yl)methyl]biphenyl-3-yl}-2,4-dioxo-1,4-dihydropyrido[2,3-d]pyrimidin-3(2H)-yl]cyclohexyl}-D-valinamide]", "IC50": 0.398},
      {"smiles": "Cc1cccc(CN[C@H]2CC[C@@H](n3c(=O)c4cc(F)cnc4n(-c4cccc(-c5ccc(O)cc5CN5CCOCC5)c4)c3=O)CC2)n1", "note": "[Example 284, 6-fluoro-1-{4′-hydroxy-2′-(morpholin-4-ylmethyl)biphenyl-3-yl]-3-(cis-4-{[(6-methylpyridin-2-yl)methyl]amino}cyclohexyl)pyrido [2,3-d]pyrimidine-2,4(1H,3H)-dione]", "IC50": 0.0794},
      {"smiles": "CC(C)NCCCc1ccc(-c2cccc(-n3c(=O)n([C@H]4CC[C@@H](NC(=O)c5cn6cc(F)ccc6n5)CC4)c(=O)c4cc(F)cnc43)c2)cc1", "note": "[Example 95, 6-fluoro-N-{cis-4-[6-fluoro-1-{4′-[3-(isopropylamino)propyl]biphenyl-3-yl]-2,4-dioxo-1,4-dihydropyrido[2,3-d]pyrimidin-3(2H)-yl]cyclohexyl}imidazo[1,2-a]pyridine-2-carboxamide]", "IC50": 0.02},
      {"smiles": "O=C(N[C@H]1CC[C@@H](n2c(=O)c3cc(F)cnc3n(-c3cccc(-c4ccc(CN5CCNCC5)cc4O)c3)c2=O)CC1)c1cn2cc(F)ccc2n1", "note": "[Example 274, 6-Fluoro-N-{cis-4-[6-fluoro-1-[2′-hydroxy-4′-(piperazin-1-ylmethyl)biphenyl-3-yl]-2,4-dioxo-1,4-dihydropyrido[2,3-d]pyrimidin-3(2H)-yl]cyclohexyl}imidazo[1,2-a]pyridine-2-carboxamide]", "IC50": 0.0631},
      {"smiles": "O=C(N[C@H]1CC[C@@H](n2c(=O)c3cc(F)cnc3n(-c3cccc(-c4ccc(CN5CCOCC5)cc4)c3)c2=O)CC1)c1cn2cc(F)ccc2n1", "note": "[Example 28, 6-fluoro-N-{cis-4-[6-fluoro-1-[4′-(morpholin-4-ylmethyl)biphenyl-3-yl]-2,4-dioxo-1,4-dihydropyrido[2,3-d]pyrimidin-3(2H)-yl]cyclohexyl}imidazo[1,2-a]pyridine-2-carboxamide.]", "IC50": 0.0126},
      {"smiles": "O=C(N[C@H]1CC[C@@H](n2c(=O)c3cc(F)cnc3n(-c3cccc(-c4ccc(CN5CCOCC5)cc4)c3)c2=O)CC1)c1cn2c(n1)CCCC2", "note": "[Example 109, N-{cis-4-[6-fluoro-1-[4′-(morpholin-4-ylmethyl)biphenyl-3-yl]-2,4-dioxo-1,4-dihydropyrido[2,3-d]pyrimidin-3(2H)-yl]cyclohexyl}-5,6,7,8-tetrahydroimidazo[1,2-a]pyridine-2-carboxamide]", "IC50": 0.0158},
      {"smiles": "CN(C)Cc1ccc(-c2cccc(-n3c(=O)n([C@H]4CC[C@@H](N)CC4)c(=O)c4cc(F)cnc43)c2)cc1", "note": "[Example 49, 3-(cis-4-aminocyclohexyl)-1-{4′-[(dimethylamino)methyl]biphenyl-3-yl}-6-fluoropyrido[2,3-d]pyrimidine-2,4(1H,3H)-dione]", "IC50": 12.6},
      {"smiles": "Cc1cc(-c2ccc(CN3CCNCC3)cc2)cc(-n2c(=O)n([C@H]3CC[C@@H](NC(=O)c4cn5cc(F)ccc5n4)CC3)c(=O)c3cc(F)cnc32)c1", "note": "[Example 230, 6-Fluoro-N-{cis-4-[6-fluoro-1-[5-methyl-4′-(piperazin-1-ylmethyl)biphenyl-3-yl]-2,4-dioxo-1,4-dihydropyrido[2,3-d]pyrimidin-3 (2H)-yl]cyclohexyl}imidazo[1,2-a]pyridine-2-carboxamide]", "IC50": 0.0316},
      {"smiles": "O=c1c2cc(F)cnc2n(-c2cccc(-c3ccc(O)cc3CN3CCOCC3)c2)c(=O)n1[C@H]1CC[C@@H](NCCCc2ccccc2)CC1", "note": "[Example 248, 6-Fluoro-1-[4′-hydroxy-2′-(morpholin-4-ylmethyl)biphenyl-3-yl]-3-{cis-4-[(3-phenylpropyl)amino]cyclohexyl}pyrido[2,3-d]pyrimidine-2,4(1H,3H)-dione]", "IC50": 1.26},
      {"smiles": "Cc1nc(C(=O)N[C@H]2CC[C@@H](n3c(=O)c4cc(F)cnc4n(-c4cccc(-c5ccc(CN6CCCNCC6)cc5)c4)c3=O)CC2)cs1", "note": "[Example 349, N-{cis-4-[1-[4′-(1,4-diazepan-1-ylmethyl)biphenyl-3-yl]-6-fluoro-2,4-dioxo-1,4-dihydropyrido[2,3-d]pyrimidin-3(2H)-yl]cyclohexyl}-2-methyl-1,3-thiazole-4-carboxamide]", "IC50": 0.02},
      {"smiles": "CN(C)Cc1ccc(-c2cccc(-n3c(=O)n([C@H]4CC[C@@H](NC(=O)c5cn6cc(F)ccc6n5)CC4)c(=O)c4cc(F)cnc43)c2)cc1", "note": "[Example 12, N-{cis-4-[1-{4′-[(dimethylamino)methyl]biphenyl-3-yl}-6-fluoro-2,4-dioxo-1,4-dihydropyrido[2,3-d]pyrimidin-3(2H)-yl]cyclohexyl}-6-fluoroimidazo[1,2-a]pyridine-2-carboxamide]", "IC50": 0.1},
      {"smiles": "C[C@@H]1CN(Cc2ccc(-c3cccc(-n4c(=O)n([C@H]5CC[C@@H](NC(=O)c6ccc7ccccc7n6)CC5)c(=O)c5cc(F)cnc54)c3)cc2)C[C@H](C)N1", "note": "[Example 300, N-{cis-4-[1-(4′-{[(3R,5S)-3,5-dimethylpiperazin-1-yl]methyl}biphenyl-3-yl)-6-fluoro-2,4-dioxo-1,4-dihydropyrido[2,3-d]pyrimidin-3(2H)-yl]cyclohexyl} quinoline-2-carboxamide]", "IC50": 0.0316},
      {"smiles": "O=c1c2cc(F)cnc2n(-c2cccc(-c3ccc(O)cc3CN3CCC[C@H]3CO)c2)c(=O)n1[C@H]1CC[C@@H](NCc2cn3cc(F)ccc3n2)CC1", "note": "[Example 330, 6-fluoro-3-(cis-4-{[(6-fluoroimidazo[1,2-a]pyridin-2-yl)methyl]amino}cyclohexyl)-1-(4′-hydroxy-2′-{[(2S)-2-(hydroxymethyl)pyrrolidin-1-yl]methyl}biphenyl-3-yl)pyrido[2,3-d]pyrimidine-2,4(1H,3H)-dione]", "IC50": 2.51},
      {"smiles": "CN(C)Cc1ccc(-c2cccc(-n3c(=O)n([C@H]4CC[C@@H](NC(=O)c5ccccc5OCCO)CC4)c(=O)c4cc(F)cnc43)c2)cc1", "note": "[Example 272, N-{cis-4-[1-{4′-[(Dimethylamino)methyl]biphenyl-3-yl}-6-fluoro-2,4-dioxo-1,4-dihydropyrido[2,3-d]pyrimidin-3(2H)-yl]cyclohexyl}-2-(2-hydroxyethoxy)benzamide]", "IC50": 0.794},
      {"smiles": "O=c1c2cc(F)cnc2n(-c2cccc(-c3ccc(O)cc3CN3CCOCC3)c2)c(=O)n1[C@H]1CC[C@@H](NCc2ccccc2F)CC1", "note": "[Example 285, 6-fluoro-3-{cis-4-[(2-fluorobenzyl)amino]cyclohexyl}-1-[4′-hydroxy-2′-(morpholin-4-ylmethyl)biphenyl-3-yl]pyrido[2,3-d]pyrimidine-2,4(1H,3H)-dione]", "IC50": 0.794},
      {"smiles": "CCCN1CCN(Cc2ccc(-c3cccc(-n4c(=O)n([C@H]5CC[C@@H](NC(=O)C6(N(C)C)CC6)CC5)c(=O)c5cc(F)cnc54)c3)cc2)CC1", "note": "[Example 208, 1-(dimethylamino)-N-{cis-4-[6-fluoro-2,4-dioxo-1-{4′-[(4-propylpiperazin-1-yl)methyl]biphenyl-3-yl}-1,4-dihydropyrido[2,3-d]pyrimidin-3(2H)-yl]cyclohexyl} cyclopropanecarboxamide]", "IC50": 0.0126}
    ]}
  ]
}
